One assay concerns the target 5-HT1Dβ (Homo sapiens, UniProt P28222). In words: [3H]5-HT radioligand binding to the cloned 5-HT1Dβ receptor.
A further assay deals with T1, 5-HT1E (Homo sapiens, UniProt P28566).
T1 construct: expressed in transfected cells
The assay is described as follows: [3H]5-HT radioligand binding to the cloned 5-HT1E receptor.

The target in another assay is T2, 5-HT1Dα (Homo sapiens, UniProt P28221).
T2 construct: expressed in transfected cells
The assay is described as follows: [3H]5-HT radioligand binding to the cloned 5-HT1Dα receptor.

The target of a further assay is T3, 5-HT1F receptor (Homo sapiens, UniProt P30939).
T3 construct: expressed in transfected cells; host or cells: Ltk- cells (mouse fibroblasts)
T3 sequence (P30939 1-366): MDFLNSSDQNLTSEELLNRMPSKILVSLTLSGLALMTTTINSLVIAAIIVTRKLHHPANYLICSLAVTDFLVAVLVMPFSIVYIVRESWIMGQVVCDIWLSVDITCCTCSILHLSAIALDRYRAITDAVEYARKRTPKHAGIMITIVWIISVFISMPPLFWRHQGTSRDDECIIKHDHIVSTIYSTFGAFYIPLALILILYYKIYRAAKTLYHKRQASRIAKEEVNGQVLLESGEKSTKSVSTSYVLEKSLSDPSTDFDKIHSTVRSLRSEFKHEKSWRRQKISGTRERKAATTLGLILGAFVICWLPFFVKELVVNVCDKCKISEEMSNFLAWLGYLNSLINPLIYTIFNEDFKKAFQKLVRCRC
In words: [3H]5-HT radioligand binding to the cloned 5-HT1F receptor (membranes of transfected Ltk- cells).

In assay [1] the test system is neuronal protein extravasation. The assay is described as follows: Neuronal (dural) protein extravasation after electrical stimulation of the trigeminal ganglion. It is filed as in vivo, Harlan Sprague-Dawley rats or guinea pigs. Particulars: 10 minutes before trigeminal ganglion stimulation, ID50 approximated from dose-response curve, species of the table not stated (rats or guinea pigs). The method, then: Harlan Sprague-Dawley rats (225-325 g) or guinea pigs from Charles River Laboratories (225-325 g) were anesthetized with sodium pentobarbital intraperitoneally (65 mg/kg or 45 mg/kg respectively) and placed in a stereotaxic frame (David Kopf Instruments) with the incisor bar set at -3.5 mm for rats or -4.0 mm for guinea pigs. Following a midline sagital scalp incision, two pairs of bilateral holes were drilled through the skull (6 mm posteriorly, 2.0 and 4.0 mm laterally in rats; 4 mm posteriorly and 3.2 and 5.2 mm laterally in guinea pigs, all coordinates referenced to bregma). Pairs of stainless steel stimulating electrodes (Rhodes Medical Systems, Inc.) were lowered through the holes in both hemispheres to a depth of 9 mm (rats) or 10.5 mm (guinea pigs) from dura.
The femoral vein was exposed and a dose of the test compound was injected intravenously (1 mL/kg). Approximately 7 minutes later, a 50 mg/kg dose of Evans Blue, a fluorescent dye, was also injected intravenously. The Evans Blue complexed with proteins in the blood and functioned as a marker for protein extravasation. […]
A fluorescence microscope (Zeiss) equipped with a grating monochromator and a spectrophotometer was used to quantify the amount of Evans Blue dye in each sample. An excitation wavelength of approximately 535 nm was utilized and the emission intensity at 600 nm was determined. […] This facilitated the computer-controlled movement of the stage with fluorescence measurements at 25 points (500 µm steps) on each dural sample. The mean and standard deviation of the measurements was determined by the computer.
The extravasation induced by the electrical stimulation of the trigeminal ganglion was an ipsilateral effect (i.e. occurs only on the side of the dura in which the trigeminal ganglion was stimulated). […] The ratio of the amount of extravasation in the dura from the stimulated side compared to the unstimulated side dura was calculated. […]

Setting [2] is: cloned receptor, [3H]5-HT displacement, 37°C.

Counter-ions that a name gives are not always drawn. Like-named read-outs stand apart in the source and are kept apart here.

T1 sequence (P28566 whole entry): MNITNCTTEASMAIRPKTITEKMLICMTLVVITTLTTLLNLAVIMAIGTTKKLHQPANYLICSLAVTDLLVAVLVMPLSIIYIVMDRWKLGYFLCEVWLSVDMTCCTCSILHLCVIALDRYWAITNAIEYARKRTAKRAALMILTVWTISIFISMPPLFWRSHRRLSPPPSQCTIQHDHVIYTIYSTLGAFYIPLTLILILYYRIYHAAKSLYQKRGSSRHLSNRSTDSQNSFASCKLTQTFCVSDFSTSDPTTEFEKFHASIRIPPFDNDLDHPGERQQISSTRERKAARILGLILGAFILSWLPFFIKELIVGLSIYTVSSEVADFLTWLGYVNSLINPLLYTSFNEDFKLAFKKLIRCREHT
5-HT1Dβ, sequence (P28222 whole entry): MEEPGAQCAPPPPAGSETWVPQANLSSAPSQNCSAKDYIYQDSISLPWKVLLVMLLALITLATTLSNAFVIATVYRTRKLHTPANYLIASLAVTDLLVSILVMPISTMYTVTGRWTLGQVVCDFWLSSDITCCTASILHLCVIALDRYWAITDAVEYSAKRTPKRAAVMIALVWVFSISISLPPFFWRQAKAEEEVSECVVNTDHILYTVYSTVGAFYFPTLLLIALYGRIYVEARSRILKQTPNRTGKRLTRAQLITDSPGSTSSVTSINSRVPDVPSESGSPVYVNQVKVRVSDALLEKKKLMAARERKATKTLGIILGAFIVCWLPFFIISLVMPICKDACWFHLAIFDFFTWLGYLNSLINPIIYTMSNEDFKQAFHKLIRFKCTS
T2 sequence (P28221 whole entry): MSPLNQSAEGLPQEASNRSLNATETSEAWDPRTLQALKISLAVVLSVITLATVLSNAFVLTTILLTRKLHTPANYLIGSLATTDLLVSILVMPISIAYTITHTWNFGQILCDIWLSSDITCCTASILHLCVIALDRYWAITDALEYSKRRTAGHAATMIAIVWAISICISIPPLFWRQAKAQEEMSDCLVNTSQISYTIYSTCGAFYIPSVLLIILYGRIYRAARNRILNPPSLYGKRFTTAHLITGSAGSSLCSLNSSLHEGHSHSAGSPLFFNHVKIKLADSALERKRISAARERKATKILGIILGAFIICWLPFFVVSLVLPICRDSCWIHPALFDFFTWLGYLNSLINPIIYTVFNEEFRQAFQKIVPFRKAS
Procedure for 5-HT1F receptor: Membrane Preparation: Membranes were prepared from transfected Ltk- cells which were grown to 100% confluency. The cells were washed twice with phosphate-buffered saline, scraped from the culture dishes into 5 mL of ice-cold phosphate-buffered saline, and centrifuged at 200 x g for 5 minutes at 4°C. The pellet was resuspended in 2.5 mL of ice-cold Tris buffer (20 mM Tris HCl, pH=7.4 at 23°C, 5 mM EDTA) and homogenized with a Wheaton tissue grinder. The lysate was subsequently centrifuged at 200 x g for 5 minutes at 4°C to pellet large fragments which were discarded. The supernatant was collected and centrifuged at 40,000 x g for 20 minutes at 4°C. The pellet resulting from this centrifugation was washed once in ice-cold Tris wash buffer and resuspended in a final buffer containing 50 mM Tris HCl and 0.5 mM EDTA, pH=7.4 at 23°C. Membrane preparations were kept on ice and utilized within two hours for the radioligand binding assays.
Saturation studies were conducted using [^3H]5-HT at 12 different concentrations ranging from 0.5 nM to 100 nM. […] The binding profile of drugs in competition experiments was accomplished using 10-12 concentrations of compound. Incubation times were 30 minutes for both saturation and displacement studies based upon initial investigations which determined equilibrium binding conditions. Nonspecific binding was defined in the presence of 10 µM 5-HT. Binding was initiated by the addition of 50 µL membrane homogenates (10-20 µg). The reaction was terminated by rapid filtration through presoaked (0.5% poylethyleneimine) filters using 48R Cell Brandel Harvester (Gaithersburg, MD). Subsequently, filters were washed for 5 seconds with ice cold buffer (50 mM Tris HCl, pH=7.4 at 4°C), dried and placed into vials containing 2.5 mL Readi-Safe (Beckman, Fullerton, CA) and radioactivity was measured using a Beckman LS 5000TA liquid scintillation counter. The efficiency of counting of [^3H]5-HT averaged between 45-50%. Binding data was analyzed by computer-assisted nonlinear regression analysis (Accufit and Accucomp, Lunden Software, Chagrin Falls, OH).

On to `CCN(CC)C1CCc2cccc(Cl)c2C1` (stereo not shown) [Compound IV, 8-chloro-2-diethylamino-1,2,3,4-tetrahydronaphthalene hydrochloride], for which the Ki (commonly the equilibrium dissociation constant of an inhibitor or competing ligand from its target) came out at 145 nM at 5-HT1Dβ, 813 nM on 5-HT1E, 13.5 nM at 5-HT1Dα and 129 nM at 5-HT1F receptor.
For `CN(C)C1CCc2[nH]c3ccc(O)cc3c2C1` (stereo not shown) [Compound V, 6-hydroxy-3-dimethylamino-1,2,3,4-tetrahydrocarbazole], the “Inhibition of Protein Extravasation i.v. ID50” value (“Inhibition” below) in assay [1] worked out at 8.7e-09 mmol/kg. Moreover, the inhibition constant (Ki) was found to be 1680 nM on 5-HT1Dβ, 73.6 nM on 5-HT1E (setting [2]), 791 nM on 5-HT1Dα and 10.3 nM on 5-HT1F receptor (setting [2]).
On to `O=C(O)C(=O)O.Oc1ccc2[nH]cc(C3CCNCC3)c2c1` [Compound III, 5-hydroxy-3-(4-piperidinyl)-1H-indole oxalate], for which the “Inhibition” value in assay [1] is 8.9e-09 mmol/kg. Also, the inhibition constant (Ki) at 5-HT1Dβ amounted to 196 nM; at 5-HT1E, 3.9 nM; at 5-HT1Dα, 163 nM; on 5-HT1F receptor, 22 nM.
In the case of `Cn1cc(CCN2CCC(c3c[nH]c4ccc(F)cc34)CC2)cn1` [Compound II, 5-fluoro-3-<1-<2-<1-methyl-1H-pyrazol-4-yl>ethyl>-4-piperidinyl>-1H-indole hydrochloride], the “Inhibition” value in assay [1] worked out at 8.6e-10 mmol/kg. Moreover, the inhibitory constant (Ki) at 5-HT1Dβ (setting [2]) is 53.6 nM; on 5-HT1E (setting [2]), 50.3 nM; at 5-HT1Dα (setting [2]) it was 21.7 nM; at 5-HT1F receptor (setting [2]), 2.5 nM.

(Values after EP0749962B1, “6-substituted-1,2,3,4-tetrahydro-9H-carbazoles and 7-substituted-10H-cyclohepta(7,6-B)indoles” (ELI LILLY AND COMPANY, priority 1995, dated 1996).)
